Article PMC12648092 (Acta Pharmaceutica Sinica. B, 2025)
pIC50: −log10 of the molar value.

The compounds below were run against AChE (Homo sapiens, UniProt P22303) (assay: ROCMCBs).
AChE, sequence (P22303 32-617 isoform P22303-2 limits assumed): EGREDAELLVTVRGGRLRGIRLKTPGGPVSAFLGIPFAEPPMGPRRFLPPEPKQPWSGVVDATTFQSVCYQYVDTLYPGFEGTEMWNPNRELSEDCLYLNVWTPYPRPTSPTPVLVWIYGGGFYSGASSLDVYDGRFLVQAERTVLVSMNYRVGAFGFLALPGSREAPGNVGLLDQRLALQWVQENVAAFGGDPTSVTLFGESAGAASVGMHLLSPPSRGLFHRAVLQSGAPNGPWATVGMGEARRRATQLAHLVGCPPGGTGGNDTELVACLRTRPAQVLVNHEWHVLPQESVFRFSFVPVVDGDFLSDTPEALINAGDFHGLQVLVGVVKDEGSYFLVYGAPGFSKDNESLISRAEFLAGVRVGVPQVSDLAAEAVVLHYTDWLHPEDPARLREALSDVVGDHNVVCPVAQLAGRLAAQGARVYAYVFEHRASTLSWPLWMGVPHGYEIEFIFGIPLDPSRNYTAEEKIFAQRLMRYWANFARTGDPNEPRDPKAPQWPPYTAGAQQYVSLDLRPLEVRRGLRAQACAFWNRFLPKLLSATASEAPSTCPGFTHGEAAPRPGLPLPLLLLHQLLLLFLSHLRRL
With `O=C(O)[C@H]1O[C@@H](Oc2cc3oc(-c4ccccc4)cc(=O)c3c(O)c2O)[C@H](O)[C@@H](O)[C@@H]1O` [baicalin] the pIC50 was 4.91. `OCc1ccc(O[C@@H]2O[C@H](CO)[C@@H](O)[C@H](O)[C@H]2O)cc1` [gastrodin] was tested, and the pIC50 was 5.49. For `COC(=O)C1=CO[C@@H](O[C@@H]2O[C@H](CO)[C@@H](O)[C@H](O)[C@H]2O)[C@@H]2C(CO)=CC[C@H]12` [geniposide], the pIC50 was 5.08. With `CC[C@H]1CN2CC[C@]3(C(=O)Nc4ccccc43)[C@@H]2C[C@@H]1/C(=C\OC)C(=O)OC` [rhynchophylline] the pIC50 was 4.18.
